This is an account of results in patent US20150202291A1, “COMBINATIONS OF CHECKPOINT INHIBITORS AND THERAPEUTICS TO TREAT CANCER” (COGNATE BIOSERVICES, INC., priority 2013, published 2015).

The subject of assay [1] is GL261 murine glioma. Briefly: Intracranial GL261 glioma model, flow cytometry of tumor and lymph node cell populations. It counts as in vivo, C57BL/6 mice. The following applies: day 16 post-implant, 72 h after second treatment. How it is done: There may be limited endogenous immune response to tumor in C57BL/6 mice intracranially implanted with GL261 murine glioma (FIG. 1A). Mice were intracranially implanted with GL261 murine glioma and then administered PBS (1×) or lysate-pulsed DC vaccine subcutaneously on days 3 and 13 post-tumor implant. On day 16, 72 h after the second treatment, mice were euthanized and spleen, lymph, and brain hemispheres harvested for processing. […] To determine the overall physiologic effect of these cell populations, two groups of GL261 glioma-bearing mice (control and DC vaccine-treated) were maintained and monitored survival.
It was hypothesized that anti-tumor response promoted by the vaccination treatment is mitigated by PD-1/PD-L1 signaling in the tumor microenvironment. […] To evaluate this population, two additional therapies to control and DC-vaccine treatment were examined: anti-PD-1 mAb-treated and combination DC vaccine with anti-PD-1 mAb-treated groups. Spleen, lymph, and brain hemispheres harvested for processing on day 16 post-implant (72 h after second treatment). […] To evaluate therapeutic benefit, mice were implanted, treated, and monitored for survival.
The inhibitory myeloid population was depleted utilizing Ly6C depleting Ab or the clinically-relevant CSF1r inhibitory drug PLX3397. […]
A general note: Flow cytometry measures light scatter and fluorescence of single cells or particles in a stream.

In assay [2] the test system is GL261 murine glioma. Briefly: Intracranial GL261 glioma model, survival. The assay is classed as in vivo, C57BL/6 mice. The note with it: well-established intracranial GL261 glioma.
Protocol: The inhibitory myeloid population was depleted utilizing Ly6C depleting Ab or the clinically-relevant CSF1r inhibitory drug PLX3397. […] Spleen, lymph, and brain hemispheres harvested for processing on day 16 post-implant (72 h after second treatment).
Bone marrow-derived DC and vaccination. […] Briefly, bone marrow cells were cultured in a humidified atmosphere of 5% CO2 at 37° C. overnight in complete RPMI (Mediatech, Inc. Herndon, Va.) (supplemented with 10% FBS, 1% (v/v) penicillin and streptomycin). […]
Assay [3] deals with advanced, treatment-refractory malignancies. The note with it: cited from earlier work.
For assay [4], the system named is diffuse large B-cell lymphoma (DLBCL). The following applies: cited from earlier work.

On to `FC(F)(F)c1ccc(CNc2ccc(Cc3c[nH]c4ncc(Cl)cc34)cn2)cn1` [PLX3397], for which, in assay [1], the “activated tumor-infiltrating lymphocytes (CD3+CD8+CD25+)” value was “significant tumor-infiltrating population” and the “inhibitory myeloid population (Ly6C+, PD-L1+) in tumor” value is listed as “absence”. Also, in assay [2], the survival entry was “entirely recovered survival benefit”.

Regarding “BMS-936558: fully human IgG4 monoclonal antibody targeting PD-1”, in assay [3] (advanced, treatment-refractory malignancies, biweekly administration), the tumor regressions result is listed as “durable partial or complete regressions”. Besides, the clinical activity entry in assay [3] (subjects with non-small cell lung cancer (NSCLC)) is “substantial clinical activity”.

“CT-011: humanized IgG1 monoclonal antibody against PD-1”: the “activity of natural killer cells” value in assay [4] (phase II trial finding) is reported as “augments the activity of natural killer cells”. The “subjects progression-free at the end of the follow-up period” value in assay [4] (phase II, DLBCL after autologous stem cell transplantation, control group 47%) was 70%. Also, in assay [4] (phase II, DLBCL after autologous stem cell transplantation, control group 62%), the subjects alive is listed as 82%.
